In PubChem BioAssay (NCI):
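Where inhibition never reached the appropriate level, the endpoint shown equals the highest concentration tested. Otherwise, values were interpolated linearly from a five-concentration, 48-hour dose response in 96-well plates. GI50: concentration for 50% inhibition of growth. At the TGI there is no net growth.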

What was measured:
Test in all cases: growth of human tumour cells (NCI), 48 h
[1] = system: HCT-15 colon
[2] = system: DU-145 prostate
[3] = system: OVCAR-5 ovarian
[4] = system: HOP-62 NSCLC
[5] = system: A549 NSCLC
[6] = system: TK-10 renal
[7] = system: OVCAR-4 ovarian
[8] = system: SR leukemia
[9] = system: SW-620 colon
[10] = system: SK-OV-3 ovarian

SMILES | GI50 [1] [µM] | TGI [1] [µM] | GI50 [2] [µM] | TGI [2] [µM] | GI50 [3] [µM] | TGI [3] [µM] | GI50 [4] [µM] | TGI [4] [µM] | GI50 [5] [µM] | TGI [5] [µM] | GI50 [6] [µM] | TGI [6] [µM] | GI50 [7] [µM] | TGI [7] [µM] | GI50 [8] [µM] | TGI [8] [µM] | GI50 [9] [µM] | TGI [9] [µM] | GI50 [10] [µM] | TGI [10] [µM]
COc1cc(NC(=O)CCSc2nc3ccc(C)cc3c(=O)n2Cc2ccccc2)cc(OC)c1OC | > 100 | > 100 | 66 | > 100 | > 100 | > 100 | 2.94 | 9.47 | 8.08 | > 100 | 7.43 | 28.4 | 3.95 | > 100 | > 100 | > 100 | > 100 | > 100 | 4.75 | 39.3
O=C(NCCc1ccccn1)OCc1nc2nc(Cl)nc(N3CCOCC3)c2[nH]1 | 1.74 | 5.17 | 1.57 | 3.04 | 1.67 | 3.38 | 2.37 | 12.6 | 7.16 | 24.9 | 1.94 | 4 | 1.7 | 3.85 | 1.97 | > 100 | 1.7 | 4.25 | 6.11 | 19.5
C1=C2CCCC3=Cc4ccccc4OC23Oc2ccccc21 | 3.68 | > 100 | 3.73 | 69.1 | 3.46 | > 100 | 3.8 | > 100 | 5.87 | > 100 | 9.87 | > 100 | 6.12 | > 100 | 2.82 | > 100 | 3.36 | 53.6 | 3.52 | > 100
O=C(Oc1ccc(CO[N+](=O)[O-])cc1)c1ccccc1 | 0.172 | 0.358 | 0.289 | 0.818 | 0.172 | 0.316 | 0.161 | 0.316 | 1.23 | 2.49 | 0.173 | 0.334 | 0.18 | 0.381 | 0.115 | 0.542 | 0.103 | 0.251 | 0.348 | 1.3
O=C1CCC(N2C(=O)c3ccccc3C2=O)C(=O)N1 (stereo unspecified) |  | > 100 |  | > 100 |  | > 100 |  | > 100 |  | > 100 | > 100 | > 100 |  | > 100 |  | > 100 |  | > 100 |  | > 100
COC(=O)C1C(O)C(C)C(O)C(C)C=C(C)C2=C3C(=C(C)C(=O)c4c(O)c(c(C)c(OC(C)=O)c43)NC(=O)C(C)=C/C=C\C(C)C(O)C(C)C1O)OCO2 (stereo unspecified) |  | 65.9 |  | > 100 |  | > 100 |  | > 100 |  | > 100 |  | > 100 |  | > 100 |  | 47.6 |  | 56.4 |  | > 100
CCOc1c(N=Nc2ccccc2Cl)c(-c2ccccc2)nn1C(=S)S |  | > 100 |  | > 100 |  | > 100 |  | > 100 |  | > 100 |  | > 100 |  | > 100 |  | 60 |  | > 100 |  | > 100
